Literature values, collected in patent US8481087B2, “Withania somnifera plant extract and method of preparation thereof” (National Brain Research Centre, priority 2008, dated 2013).

System: severely damaged neurons
Conditions: severely damaged neurons in vitro

With `CC1=C(C)C(=O)O[C@@H]([C@](C)(O)[C@H]2CC[C@H]3[C@@H]4[C@@H]5O[C@@H]5[C@@]5(O)CC=CC(=O)[C@]5(C)[C@H]4CC[C@]23C)C1` [Withanolide-A] as the compound, how does the “neurite regeneration and synapse reconstruction” value read?
The value was “regenerate neurites and reconstruct synapses”.
